We go through 99 compounds from ChEMBL document CHEMBL3507680, “University of Dundee, Gates Library screen for HepG2 cell viability”.

A short description of this data set: Human HepG2 cell viability assay in 384 well format. It counts as toxicity, cell-based. Also on record: dose 125 nL, time 70.5 hour; cytotoxicity at 70.5 h: concentration not given beside the values. Particulars: HepG2 cells, read-out: Inhibition.
Turning to `Cn1c(N2CCOCC2)nc2cc(C(=O)N[C@@H]3CC[C@@H](N)C3)ccc21`, the cytotoxicity at 70.5 h was -5.03%.

With `COc1ccccc1CN1C[C@@H]2CN(C(C)=O)CCO[C@@H]2C1`, the cytotoxicity at 70.5 h is -1.68%.

Consider `CN(Cc1ccccn1)C(=O)CNC(=O)N1CCc2ccccc2C1`, for which the cytotoxicity at 70.5 h is -10.7%.

As for `Cc1nccn1CCN(C)c1cc(C(C)C)nc2ccnn12`, the cytotoxicity at 70.5 h is -2.26%.

Consider `CC(C)OCCn1nnnc1Cc1ccc(Br)cc1`, for which the cytotoxicity at 70.5 h was -5.01%.

On to `CC(C)NC(=O)C1CN(C(=O)COc2ccccc2)CC12CCOCC2` (centres undefined), for which the cytotoxicity at 70.5 h is -9.68%.

With `Cc1ncc(CN(C)C(=O)Nc2cccc(N3CCNC3=O)c2)s1`, the cytotoxicity at 70.5 h is -3.19%.

Turning to `CN1[C@@H](C(=O)NCC2CC2)C[C@H]2CN(Cc3ccsc3)C[C@H]21`, the cytotoxicity at 70.5 h stood at 12.6%.

Consider `CC(C#N)CSc1ccccc1NCC(=O)NC(=O)NC(C)(C)C` (centres undefined), for which the cytotoxicity at 70.5 h was -2.56%.

Take `CC(C)NC(=O)N1CCOC2(CNC2)C1`: the cytotoxicity at 70.5 h is -4.25%.

As to `CC(=O)N1CCCC1c1ccc(Br)cn1` (centres undefined), the cytotoxicity at 70.5 h is 1.79%.

Consider `Cc1nc(CN2CCCN(C(=O)COCC3CC3)CC2)cs1`, for which the cytotoxicity at 70.5 h is -2.01%.

With `COc1cccc(CNC(Cc2cccs2)c2nc(C)c(C)s2)c1OC` (centres undefined), the cytotoxicity at 70.5 h is -1.23%.

Consider `Cn1cccc1C(O)CNC(=O)c1ccc(C(F)(F)F)cc1` (centres undefined), for which the cytotoxicity at 70.5 h was -20.6%.

As to `O=C(Cc1nc(-c2ccncc2)n[nH]1)NCCCN1CCOCC1`, the cytotoxicity at 70.5 h was -10.7%.

In the case of `CCN(CC)C(=O)c1ccc(-n2ncc(C#N)c2N)cc1`, the cytotoxicity at 70.5 h came to 12.9%.

Take `Cn1nc(CNC(=O)CN2C(=O)CCC2=O)cc1C1CC1`: the cytotoxicity at 70.5 h turned out to be 1.45%.

On to `CC(Oc1cccc(F)c1)C(=O)N(CC(N)=O)C1CCCC1` (centres undefined), for which the cytotoxicity at 70.5 h is 0.47%.

As for `CN(C)C(=O)c1cccc(NC(=O)CN2CCCCC2C2OCCO2)c1` (centres undefined), the cytotoxicity at 70.5 h is -5.7%.

Turning to `C[C@@H]1CN(Cc2nc(Cc3ccccc3F)no2)C[C@H](C)O1`, the cytotoxicity at 70.5 h stood at 32.5%.

For the compound `CC(C)C(C)(C#N)NC(=O)Cn1cc(Cl)cn1` (centres undefined), the cytotoxicity at 70.5 h is -6.35%.

For the compound `CNc1ccc(CC2CCCN(C(=O)c3cncnc3C)C2)nn1` (centres undefined), the cytotoxicity at 70.5 h is -0.989%.

Turning to `Cc1ncoc1C(=O)N1C[C@H]2CCC[C@@]2(COCc2cccnc2)C1`, the cytotoxicity at 70.5 h stood at 3.21%.

For `CC1CCN(C(=O)c2ccn(COc3ccc(F)cc3)n2)CC1`, the cytotoxicity at 70.5 h is -6.36%.

Turning to `CC(C)C(NC(=O)c1ccc(Cl)cc1Cl)C(=O)Nc1cnn(C)c1` (centres undefined), the cytotoxicity at 70.5 h came out at 4.14%.

Turning to `CC(C)(C#N)C(=O)Nc1nccn1Cc1ccc(Br)cc1`, the cytotoxicity at 70.5 h turned out to be 11.2%.

With `CCc1nc2ccccc2c(=O)n1CC1(O)CCNCC1`, the cytotoxicity at 70.5 h was -11.1%.

Turning to `O=C(CCS(=O)(=O)c1ccccc1)NCCCn1cccn1`, the cytotoxicity at 70.5 h is -16.1%.

With `COc1ccc(Cc2ncc3c(n2)CN(C(=O)CCO)C3)cc1`, the cytotoxicity at 70.5 h was found to be 25.1%.

Turning to `CCN(C)CC(=O)N1CCc2nc(NC)nc(C(=O)N3CCCC3)c2C1`, the cytotoxicity at 70.5 h was 2.56%.

With `Cn1cc(CN2CCc3c(nc(-c4ccccn4)[nH]c3=O)C2)cn1`, the cytotoxicity at 70.5 h is -23.4%.

For `CCCC(=O)N1CCC(Nc2nc(O)cc(-c3ccsc3)n2)CC1`, the cytotoxicity at 70.5 h was -3.98%.

As for `Cc1cc(S(=O)(=O)N2CCCc3cc(F)cc(F)c32)sc1C(=O)O`, the cytotoxicity at 70.5 h worked out at 11.1%.

On to `Cc1ccc(C(=O)N2CCO[C@H]3[C@H](OCc4ccccn4)CC[C@@H]32)o1`, for which the cytotoxicity at 70.5 h was -3.92%.

As to `Cc1cncc(C(=O)N2CCCCC2c2nc(C)cs2)c1` (centres undefined), the cytotoxicity at 70.5 h worked out at 17.3%.

Take `CCN(Cc1ccco1)C(=O)NCc1nnc2n1CCCCC2`: the cytotoxicity at 70.5 h was determined as 5.47%.

For `CC(C(=O)N1CCc2sccc2C1)N1CCCN(C2CC2)CC1` (centres undefined), the cytotoxicity at 70.5 h was -10.7%.

Consider `O=C(NCCCNc1cccnc1)c1ccc2nccn2c1`, for which the cytotoxicity at 70.5 h was -12.7%.

As to `Cc1nc(C2CCCN2Cc2cc(=O)n(C)c(=O)n2C)no1` (centres undefined), the cytotoxicity at 70.5 h was -1.72%.

For the compound `N#CCCN(Cc1cccnc1)C(=O)Cc1ccc(-n2cnnn2)cc1`, the cytotoxicity at 70.5 h is -10.6%.

As to `Cc1ccc(O)c(CN2CCn3nc(C(=O)N4CCCC4)cc3C2)n1`, the cytotoxicity at 70.5 h was determined as 0.113%.

For `NC(=O)C1CCN(C(=O)c2cc(-n3cnnn3)ccc2Cl)CC1`, the cytotoxicity at 70.5 h was -14.1%.

Consider `CC1CCN(CCCNS(=O)(=O)c2cc(F)cc(F)c2)CC1`, for which the cytotoxicity at 70.5 h stood at 48.4%.

Take `O=C1N(c2ccc(Cl)cc2)Cc2n[nH]c(=O)n21`: the cytotoxicity at 70.5 h was -2.4%.

In the case of `COc1ccc(CN2CCC3(CCN(c4cccnc4)C3=O)C2)cc1` (centres undefined), the cytotoxicity at 70.5 h came to 1.92%.

Take `CC(C)c1nnsc1CNC(=O)C1CCN(C(=O)C2CCCC2)CC1`: the cytotoxicity at 70.5 h came out at 12%.

Turning to `O=C([C@@H]1CCCN1c1nccc(Nc2ccccc2)n1)N1CCCCC1`, the cytotoxicity at 70.5 h is 20.9%.

Turning to `N#Cc1ccc(CN2CCN(c3ccncc3Cl)CC2=O)cc1`, the cytotoxicity at 70.5 h is -4.03%.

Regarding `c1ccc(CN2CCN3C[C@H](Oc4cncnc4)C[C@H]3C2)nc1`, the cytotoxicity at 70.5 h was -3.2%.

Regarding `COc1cc2c(cc1CN1CCc3sccc3C1C)OCCO2` (centres undefined), the cytotoxicity at 70.5 h was determined as 2.33%.

In the case of `c1cnnc(N[C@@H]2CC[C@@H]3CN(Cc4ccc5[nH]ccc5c4)C[C@@H]32)c1`, the cytotoxicity at 70.5 h was 2.98%.

In the case of `Cc1nn(C)c(C)c1CN(Cc1cccn1-c1cccnc1)C(C)C`, the cytotoxicity at 70.5 h worked out at 11.8%.

For `Nc1c(C(=O)C2CCCN(C(=O)C3CC3)C2)cnn1-c1ccc(F)cc1` (centres undefined), the cytotoxicity at 70.5 h was -2.33%.

With `CCNC(=O)NC(c1ccc(C)cc1)c1cccc(S(C)(=O)=O)c1` (centres undefined), the cytotoxicity at 70.5 h was -11%.

Regarding `Cc1cc(-c2nn3c(C)nnc3s2)n[nH]1`, the cytotoxicity at 70.5 h was 20%.

With `O=C(c1c[nH]nn1)N1CCN(C(c2ccccc2)C(F)(F)F)CC1` (centres undefined), the cytotoxicity at 70.5 h was -10.3%.

Turning to `COc1cccc(CN2CCC3(COCc4cnc(N(C)C)nc43)C2)c1` (centres undefined), the cytotoxicity at 70.5 h was determined as 1.22%.

Turning to `O=C(c1cc(Cl)ccc1OC1CCN(C2CCCC2)CC1)N1CCCO1`, the cytotoxicity at 70.5 h amounted to 11.8%.

Take `Cc1cc(C)n(CC2CCCCN2C(=O)c2ccc(C(N)=O)cc2)n1` (centres undefined): the cytotoxicity at 70.5 h was -12%.

Turning to `COc1cc(CNCc2c(C)nn(C)c2N(C)C)ccn1`, the cytotoxicity at 70.5 h was -1.56%.

With `O=C(NCCc1nnc2n1CCC2)NCC1(c2ccc(F)cc2)CC1`, the cytotoxicity at 70.5 h is -7.03%.

Take `O=c1nc(SCc2ccncc2)c2c(n1CCO)CCC2`: the cytotoxicity at 70.5 h was -0.878%.

With `O=C(NCCOc1ncc(Cl)cc1Cl)c1ccoc1`, the cytotoxicity at 70.5 h amounted to 21.7%.

For the compound `CS(=O)(=O)Cc1cc(Cl)c2c(c1)OCCCO2`, the cytotoxicity at 70.5 h was -3.38%.

As for `N#Cc1cn(CC(=O)NC2CC2)c2ccc(Br)cc2c1=O`, the cytotoxicity at 70.5 h was -7.46%.

For `Cc1nc(-c2ccc(Cl)cc2)n(CC(=O)NC(C)C)c(=O)c1CCO`, the cytotoxicity at 70.5 h was -8.99%.

`CC(=O)N(C)Cc1cccc(NC(=O)CCCc2nc(C(C)C)no2)c1`: the cytotoxicity at 70.5 h was 9.44%.

With `Cn1cncc1CN1CCC2(CCCN2c2ncccn2)CC1`, the cytotoxicity at 70.5 h was -8.23%.

As for `Cc1ccc(NC2CCN(C(=O)c3ccoc3C)CC2)nn1`, the cytotoxicity at 70.5 h was -0.801%.

In the case of `N#Cc1cc2cc(Cl)cnc2nc1O`, the cytotoxicity at 70.5 h is -12%.

With `CN(CCOc1ccccc1Cl)S(=O)(=O)N1CCOCC1`, the cytotoxicity at 70.5 h was -7.93%.

`Cn1ccc2ccc(C(=O)Nc3nc[nH]n3)cc21`: the cytotoxicity at 70.5 h was 13.7%.

In the case of `CN(C)c1cccc(C(=O)N2CCc3ccc(=O)[nH]c3CC2)c1`, the cytotoxicity at 70.5 h is -6.59%.

Consider `COCC1CC2(CCN(Cc3ccco3)CC2)CN1C(C)C` (centres undefined), for which the cytotoxicity at 70.5 h stood at 6.8%.

`CN(C)CCN1CCC2(CC1)CN(Cc1cccnc1)C(=O)CO2`: the cytotoxicity at 70.5 h is -4.21%.

In the case of `Cc1cc(OCC(=O)N2CCCC(c3ccn[nH]3)C2)no1` (centres undefined), the cytotoxicity at 70.5 h was -5.93%.

Regarding `COc1c(C2CCCN2C(=O)c2ccc3[nH]cnc3c2)c(C)nn1C` (centres undefined), the cytotoxicity at 70.5 h was -0.572%.

Take `Cc1cc(C)n(CC2CCCN2C(=O)CCCNc2ncccn2)n1` (centres undefined): the cytotoxicity at 70.5 h is -0.613%.

On to `Fc1ccc2nc([C@H]3CCNC3)[nH]c2c1`, for which the cytotoxicity at 70.5 h was -0.112%.

As for `Cc1cccc2c1NC1(CCOCC1)NC2=O`, the cytotoxicity at 70.5 h is -26.4%.

With `O=C(NCc1ccccn1)NCC(c1ccco1)N1CCCCC1` (centres undefined), the cytotoxicity at 70.5 h was -5.04%.

`O=C(C1CCC1)N1CCCn2nc(CNc3ncccn3)cc2C1`: the cytotoxicity at 70.5 h turned out to be 1.42%.

For the compound `CN(Cc1cccs1)C(=O)CN1CCCCC1Cn1cncn1` (centres undefined), the cytotoxicity at 70.5 h is 23.2%.

Consider `Cc1ccc(-c2csc3c(=O)[nH]c(N4CCCC(C(=O)O)C4)nc23)cc1` (centres undefined), for which the cytotoxicity at 70.5 h came out at 3.06%.

Consider `CC(C)N1CCOC(Cc2nn3c(Cc4ccccc4)nnc3s2)C1` (centres undefined), for which the cytotoxicity at 70.5 h is -18.2%.

Take `CCOC(=O)c1coc(N2CCN(Cc3cccc(OC)c3)C(=O)C2)n1`: the cytotoxicity at 70.5 h is 4.55%.

As to `CN1CCN(c2ccc(NC(=O)c3ccoc3)c(C(F)(F)F)c2)CC1`, the cytotoxicity at 70.5 h was -7.05%.

As for `Nc1nc(Nc2ccccc2)cc(N2CCNCC2)n1`, the cytotoxicity at 70.5 h was -3.76%.

As to `COc1ccc(-c2nnc(C(C)N3CCC4(CC3)OCCO4)o2)cc1` (centres undefined), the cytotoxicity at 70.5 h is -10.3%.

As to `CCn1ncc2c1C(COC)CN(Cc1ccsc1)C2` (centres undefined), the cytotoxicity at 70.5 h stood at 1.82%.

Consider `COCC(=O)N1CCN(C)CC(Cc2cc(N(C)C)ncn2)C1` (centres undefined), for which the cytotoxicity at 70.5 h was -3.09%.

For the compound `Cc1cc(C)cc(CN2CCC3(CC2)CC(Nc2ncccn2)CO3)c1` (centres undefined), the cytotoxicity at 70.5 h was -68.4%.

Consider `CN(Cc1ccccc1-n1cccn1)c1nc(N)nc2c1CCNCC2`, for which the cytotoxicity at 70.5 h was 4.77%.

`Cc1cccc2c1ccn2CCC(=O)Nc1c2c(nn1C)CSC2`: the cytotoxicity at 70.5 h was -7.62%.

For the compound `O=C(Cc1ccc2c(c1)CCO2)N1CCCC1c1noc(C2CC2)n1` (centres undefined), the cytotoxicity at 70.5 h was 9.85%.

Turning to `Cc1cc(NC(=O)CN2CCc3nn(C)c(=O)cc3C2)no1`, the cytotoxicity at 70.5 h was -9.67%.

As for `COc1cccc(-c2csc(Cn3ccc(=O)[nH]c3=O)n2)c1`, the cytotoxicity at 70.5 h was 19.5%.

On to `Cc1cc(-c2cnc(N(C)C)nc2C2CCCCN2C(=O)C2CC2)on1` (centres undefined), for which the cytotoxicity at 70.5 h was -3.37%.

As to `Cc1nnc(N2CC[C@H]3C[C@H](C(=O)N(C)C)O[C@@H]3C2)s1`, the cytotoxicity at 70.5 h is -7.89%.
